In patent publication US5686454A, “Camphorcarbonyl” (Merck & Co., Inc., priority 1996, dated 1997) one finds IC50 and inhibition data, which are given here for 29 compounds.

The first assay addresses T1, uterine OT receptors (Rattus norvegicus, UniProt P70536).
T1 construct: crude membrane preparation of uteri; from tissue; host or cells: uterus of DES-treated rats, crude membranes
T1 sequence (P70536 1-388): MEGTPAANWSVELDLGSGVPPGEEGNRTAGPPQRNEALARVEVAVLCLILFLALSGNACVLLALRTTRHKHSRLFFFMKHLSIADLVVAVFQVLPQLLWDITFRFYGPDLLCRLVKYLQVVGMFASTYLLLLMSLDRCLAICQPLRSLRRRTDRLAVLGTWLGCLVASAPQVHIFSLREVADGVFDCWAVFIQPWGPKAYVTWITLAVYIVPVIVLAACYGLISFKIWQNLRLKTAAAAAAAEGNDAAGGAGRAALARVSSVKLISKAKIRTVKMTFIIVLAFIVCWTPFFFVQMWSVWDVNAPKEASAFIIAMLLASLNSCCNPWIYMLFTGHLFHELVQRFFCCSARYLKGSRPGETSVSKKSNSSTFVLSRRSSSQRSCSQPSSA
Nature of the assay: Radioligand binding: competition of [^3 H]oxytocin binding to rat uterine membranes. The conditions noted are these: 1 nM [^3 H]OT, rat uterus membranes, 60 minutes, 22° C., pH 7.4; read-out: IC50. An excerpt: RADIOGLIGAND BINDING ASSAYS
The high affinity binding of [^3 H]
Consider `CCOC(=O)CN1CCCC(C(=O)NCC(C)C2(O)CC3CCC2(CS(=O)(=O)N2CCN(c4ccccc4C)CC2)C3(C)C)C1` (stereo not drawn) [Example 86, 1-((7,7-Dimethyl-2-exo-hydroxy-2-endo-2-(1-(3-(1-ethoxycarbonylmethyl)piperidinylcar-bonyl)amino)propyl-bicyclo(2.2.1)heptan-1-yl)methanesulfonyl)-4-(2-methylphenyl)piperazine], for which the IC50 came out at 38 nM.

Turning to `Cc1ccccc1N1CCN(C(=O)C2C3CCC(C)(C2NC(=O)C(C)(C)O)C3(C)C)CC1` (centres unmarked) [Example 17], the concentration for half-maximal inhibition (IC50) is 16 nM.

As to `Cc1ccccc1N1CCN(S(=O)(=O)CC23CCC(CC2NC(=O)Cc2c[nH]cn2)C3(C)C)CC1` (centres unmarked) [Example 79], the half-inhibitory concentration (IC50) is 26 nM.

On to `Cc1ccccc1N1CCN(C(=O)C2C3CCC(C)(C2NC(=O)C(CCS(C)(=O)=O)NC(=O)OC(C)(C)C)C3(C)C)CC1` (stereo not drawn) [Example 11, 1-(2-methylphenyl)-4-[(4,7,7-trimethyl-3-endo-(4-methylsulfonyl-2-t-butoxycarbonylamino)butanoylaminobicyclo[2.2.1]hept-2-endo-yl)carbonyl]-piperazine], for which the IC50 came out at 1100 nM.

Consider `CCOC(=O)CN1CCC[C@H]1C(=O)NCC(C)C1(O)CC2CCC1(CS(=O)(=O)N1CCN(c3ccccc3C)CC1)C2(C)C` (stereo partly drawn) [Example 88, 1-((7,7-Dimethyl-2-exo-hydroxy-2-endo-2-(1-(1-N -(ethoxycarboxymethyl)-prolyl)amino)propyl-bicyclo-(2.2.1)heptan-1-yl)methanesulfonyl)-4-(2-methylphenyl)piperazine], for which the half-inhibitory concentration (IC50) worked out at 28 nM.

For `Cc1ccccc1N1CCN(S(=O)(=O)CC23CCC(C=C2C(=O)NCCc2c[nH]cn2)C3(C)C)CC1` (centres unmarked) [Example 58, 1-((7,7-Dimethyl-2-(4-imidazolyl)ethylaminocarbonyl-bicyclo(2.2.1)hept-2-en-1-yl)methanesulfonyl)-4-(2-methylphenyl)piperazine], the half-maximal inhibitory concentration (IC50) came to 120 nM.

As for `Cc1ccccc1N1CCN(C(=O)C2C3CCC(C)(C2NC(=O)Cc2c[nH]cn2)C3(C)C)CC1` (centres unmarked) [Example 13, 1-(2-Methylphenyl)-4-[(4,7,7-trimethyl-3-(2-(4-imidazolyl))acetylaminobicyclo[2.21]hept-2-yl)carbonyl]-piperazine], the IC50 is 33.3 nM.

With `Cc1ccccc1N1CCN(C(=O)C2C3CCC(C)(C2O)C3(C)C)CC1` (centres unmarked) [Example 2, 1-[(3-hydroxy-4,7,7-trimethylbicyclo[2.2.1]hept-2-yl)carbonyl]-4-(2-methylphenyl)-piperazine], the IC50 stood at 800 nM.

With `Cc1ccccc1N1CCN(S(=O)(=O)CC23CCC(CC2(O)C(C)CNC(=O)C2CCCNC2)C3(C)C)CC1` (stereo not drawn) [Example 83, 1-((7,7-Dimethyl-2-exo-hydroxy-2-endo-2-(1-(3-piperidinylcarbonyl)amino)propyl-bicyclo(2.2.1)heptan-1-yl)methanesulfonyl)-4-(2-methylphenyl)piperazine], the IC50 was determined as 30 nM.

`Cc1ccccc1N1CCN(S(=O)(=O)CC23CCC(CC2N(C)C(=O)[C@@H](N)CCS(C)(=O)=O)C3(C)C)CC1` (stereo partly drawn) [Example 77, 1-((7,7-dimethyl-2-endo-methyl(2S-amino-4-(methylsulfonyl)butanoyl)amino-bicyclo(2.2.1)heptan-1-yl)methanesulfonyl)-4-(2-methylphenyl)-piperazine]: the IC50 was 9.2 nM.

For `COC(=O)CCN1CCCC(C(=O)NCC(C)C2(O)CC3CCC2(CS(=O)(=O)N2CCN(c4ccccc4C)CC2)C3(C)C)C1` (centres unmarked) [Example 84], the IC50 is 25 nM.

For `Cc1ccccc1N1CCN(S(=O)(=O)C[C@]23CC[C@H](CC2=O)C3(C)C)CC1` [Example 37, 1-((7,7-Dimethyl-2-oxo-bicyclo(2.2.1)heptan-1-yl)methanesulfonyl)-4-(2-methylphenyl)piperazine], the IC50 came to 1000 nM.

Consider `CC(=O)NC1C(C(=O)N2CCN(c3ccccc3C)CC2)C2CCC1(C)C2(C)C` (centres unmarked) [Example 14, 1-(2-methylphenyl)-4-[(4,7,7-trimethyl-3-acetylaminobicyclo[2.2.1]hept-2-yl)carbonyl]-piperazine], for which the IC50 came out at 55 nM.

Consider `Cc1ccccc1N1CCN(S(=O)(=O)CC23CCC(CC2C(=O)NCCc2c[nH]cn2)C3(C)C)CC1` (stereo not drawn) [Example 61, 1-((7,7-Dimethyl-2-endo-(4-imidazolyl)ethylamino-carbonyl-bicyclo-(2.2.1)heptan-1-yl)methanesulfonyl)-4-(2-methylphenyl)piperazine], for which the IC50 is 35 nM.

In the case of `CCOC(=O)CCN1CCCC1C(=O)NC1C(C(=O)N2CCN(c3ccccc3C)CC2)C2CCC1(C)C2(C)C` (centres unmarked) [Example 16], the IC50 worked out at 27 nM.

With `Cc1ccccc1N1CCN(C(=O)C2(C)C(=O)C3(C)CCC2C3(C)C)CC1` (centres unmarked) [Example 3, 1-(2-methylphenyl)-4-[(2,4,7,7-tetramethyl-3-oxobicyclo[2.2.1]hept-2-yl)carbonyl]-piperazine], the IC50 amounted to 150 nM.

On to `COC(=O)CCN1CCC[C@H]1C(=O)NCC(C)C1(O)CC2CCC1(CS(=O)(=O)N1CCN(c3ccccc3C)CC1)C2(C)C` (stereo partly drawn) [Example 81, 1-((7,7-Dimethyl-2-exo-hydroxy-2-endo-2-(1-(1--N -(methoxycarbonylethyl)prolyl)amino)propylbicyclo-(2.2.1)heptan-1-yl)methanesulfonyl)-4-(2-methyl-phenyl)piperazine], for which the IC50 is 20 nM.

`Cc1ccccc1N1CCN(S(=O)(=O)C[C@]23CC[C@H](C[C@]2(O)C(C)C#N)C3(C)C)CC1` (stereo partly drawn) [Example 38, 1-((7,7-Dimethyl-2-exo-hydroxy-2-endo-(1-cyano)ethyl-bicyclo(2.2.1)heptan-1-yl)methanesulfonyl)-4-(2-methylphenyl)piperazine]: the 50% inhibitory concentration (IC50) came to 150 nM.

Consider `Cc1ccccc1N1CCN(S(=O)(=O)CC23CCC(CC2(O)C(C)CNC(=O)[C@@H]2CCCN2CC(=O)O)C3(C)C)CC1` (some centres unmarked) [Example 89], for which the IC50 was determined as 14 nM.

As for `CCOC(=O)CCCN1CCC[C@H]1C(=O)NCC(C)[C@@]1(O)C[C@H]2CC[C@]1(CS(=O)(=O)N1CCN(c3ccccc3C)CC1)C2(C)C` (stereo partly drawn) [Example 41, 1-((7,7-Dimethyl-2-exo-hydroxy-2-endo-2-(1-(1-N-(ethoxycarbonylpropyl)prolyl)amino)propyl-bicyclo(2.2.1)heptan-1-yl)methanesulfonyl)-4-(2-methylphenyl)piperazine], the half-maximal inhibitory concentration (IC50) was found to be 100 nM.

Regarding `Cc1ccccc1N1CCN(S(=O)(=O)C[C@]23CC[C@H](C[C@]2(O)C(C)CNC(=O)[C@@H]2CCCN2)C3(C)C)CC1` (stereo partly drawn) [Example 40, 1-((7,7-Dimethyl-2-exo-hydroxy-2-endo-2-(1-(1-prolyl)-amino)propylbicyclo(2.2.1)heptan-1-yl)methanesulfonyl)-4-(2-methylphenyl)piperazine], the IC50 amounted to 34 nM.

Staying with this assay, now noted: read-out: % inhibition at 100 nM.
For `Cc1ccccc1N1CCN(S(=O)(=O)CC23CCC(CC2C(=O)O)C3(C)C)CC1` (stereo not drawn) [Example 60, 1-((7,7-Dimethyl-2-endo-carboxy-bicyclo(2.2.1)heptan-1-yl)methanesulfonyl)-4-(2-methylphenyl)piperazine], the inhibition at 0.1 µM turned out to be 34%.

The assay is the same for the next values; noted with them: read-out: % inhibition at 1000 nM.
Take `Cc1ccccc1N1CCN(S(=O)(=O)CC23CCC(CC2=O)C3(C)C)C(C)C1=O` (centres unmarked) [Example 67, 1-((7,7-Dimethyl-2-oxo-bicyclo(2.2.1)heptan-1-yl)-methanesulfonyl)-4-(2-methylphenyl)-2-methyl-3-piperazinone]: the inhibition at 1 µM was found to be 37%.

For the compound `Cc1ccccc1N1CCN(S(=O)(=O)C[C@]23CC[C@H](CC2=CCNC(=O)Cc2c[nH]cn2)C3(C)C)CC1` [Example 53, 1-((7,7-dimethyl-2-(2-(4(5)-imidazolylacetyl)amino)-ethylidine-bicyclo(2.2.1)heptan-1-yl)methane-sulfonyl)-4-(2-methylphenyl)piperazine], the inhibition at 1 µM was 75%.

Take `Cc1ccccc1N1CCN(S(=O)(=O)C[C@]23CC[C@H](CC2=CCNCC(C)C)C3(C)C)CC1` [Example 50, 1-((7,7-dimethyl-2-(2-isobutylamino)ethylidine-bicyclo(2.2.1)heptan-1-yl)methanesulfonlyl)-4-(2-methylphenyl)piperazine]: the inhibition at 1 µM came to 44%.

With `Cc1ccccc1N1CCN(C(=O)C2C3CCC(C)(C2NC(=O)C(N)CCS(C)(=O)=O)C3(C)C)CC1` (stereo not drawn) [Example 10, 1-(2-methylphenyl)-4-[(4,7,7-trimethyl-3-exo-(4-methylsulfonyl-2-amino)butanoylaminobicyclo[2.2.1]hept-2-endo-yl)carbonyl]-piperazine], the inhibition at 1 µM was 75%.

Take `COC(=O)C1=C[C@H]2CC[C@]1(CS(=O)(=O)N1CCN(c3ccccc3C)CC1)C2(C)C` [Example 56, 1-((7,7-Dimethyl-2-methoxycarbonyl-bicyclo(2.2.1)hept-2-en-1-yl)methanesulfonyl)-4-(2-methylphenyl)-piperazine]: the inhibition at 1 µM turned out to be 38%.

As to `Cc1ccccc1N1CCN(S(=O)(=O)CC23CCC(CC2NC(=O)[C@H](CCS(C)(=O)=O)N(C)C)C3(C)C)CC1` (stereo partly drawn) [Example 74, 1-((7,7-Dimethyl-2-endo-(2S-(dimethylamino)-4-(methylsulfonyl)butyramido)-bicyclo(2.2.1)heptan-1-yl)methanesulfonyl)-4-(2-methylphenyl)piperazine], the inhibition at 1 µM was 54%.

Still in this assay, the particulars now being: read-out: % inhibition at 10,000 nM.
Regarding `CC(=O)NC(CC=C1CC2CCC1(CS(=O)(=O)N1CCN(c3ccccc3C)CC1)C2(C)C)C(=O)O` (centres unmarked) [Example 65, 1-((7,7-Dimethyl-2-(3-acetamido-3-carboxy)propylidine-bicyclo(2.2.1)heptan-1-1 methanesulfonyl)-4-2-methylphenyl)piperazine], the inhibition at 10 µM is 16%.
